Our source for the IC50 values is patent publication US20230278993A1, “NOVEL TRICYCLIC AROMATIC HETEROCYCLIC COMPOUND AND PREPARATION METHOD THEREFOR, PHARMACEUTICAL COMPOSITION AND USE THEREOF” (SHANGHAI LONGWOOD BIOPHARMACEUTICALS CO., LTD., priority 2020, published 2023).

Each structure is given as a SMILES string.

The target of the assay is PD-1/PD-L1 (Homo sapiens (Human), UniProt Q9NZQ7). The assay is described as follows: PD-1/PD-L1 homogeneous time-resolved fluorescence (HTRF) binding assay. As to conditions: recombinant human PD-L1 (19-238) His-tagged, human PD-1 (25-167) Fc tag; 25° C., PBS pH 7.4. How it is done:
Example A: PD-1/PD-L1 Homogeneous Time-Resolved Fluorescence (HTRF) Binding Assay
Assays were performed in standard black 384-well polystyrene plates and a final volume was 20 μL. The inhibitor was first serially diluted with DMSO and added to the wells of the plate, followed by the addition of other reaction components. The final concentration of DMSO in the assay was 1%. Assays were performed at 25° C. in PBS buffer (pH 7.4) containing 0.05% Tween-20 and 0.1% BSA. Recombinant human PD-L1 protein (19-238) with a His-tagged at the C-terminus was purchased from AcroBiosystems (PD1-H5229). Recombinant human PD-1 protein (25-167) with an Fc tag at the C-terminus was also purchased from AcroBiosystems (PD1-H5257). The PD-L1 and PD-1 proteins were diluted in assay buffer and then […] of the solution was extracted and added to the wells of the plate. Plates were centrifuged and proteins and inhibitors were preincubated for 40 minutes. After incubation, […] of HTRF detection buffer containing europium […] labeled anti-human IgG (PerkinElmer-AD0212), Fc-specific and anti-His SureLight@-Allophycocyanin (APC, PerkinElmer-AD0059H) conjugated antibodies was added. After centrifugation, the plates were incubated at 25° C. for 60 minutes. Data was read in a PHERAstar FS plate reader (665 nm/620 nm ratio). Final concentrations in the assay were ˜3 nM of PD1, 10 nM of PD-L1, 1 nM of europium anti-human IgG, and 20 nM of anti-His-allophycocyanin. Activity data were fitted using GraphPad Prism 5.0 software to derive IC50 values for inhibitors.
The IC50 values of the compounds exemplified in the examples are expressed in the following manner: IC50: +: ≤100 nM; ++: 100 nM˜1000 nM; +++: >1000 nM. The data of the example compounds obtained using the PD-1/PD-L1 homogeneous time-resolved fluorescence (HTRF) binding assay described in Example A were provided in Table 1.
In general terms: Time-resolved FRET reads energy transfer from a long-lived donor to a nearby acceptor.

PD-1/PD-L1, sequence (Q9NZQ7 19-238): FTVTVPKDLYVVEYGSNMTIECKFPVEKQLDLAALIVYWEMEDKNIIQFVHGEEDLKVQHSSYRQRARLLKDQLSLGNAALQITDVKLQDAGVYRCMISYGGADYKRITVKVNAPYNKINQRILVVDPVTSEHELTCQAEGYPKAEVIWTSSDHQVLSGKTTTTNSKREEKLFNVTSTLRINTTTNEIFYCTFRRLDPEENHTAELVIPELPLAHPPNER

In the case of `Cc1c(-c2ccc3c(c2)OCCO3)cccc1-c1nc2cc3c(c(C#N)c2o1)CC[C@H]3N1CC[C@@H](C(=O)O)C1` [Compound 047], the IC50 (usually the point on the concentration scale where inhibition reaches its midpoint) was at most 100 nM.

For `O=C(O)[C@@H]1CCN([C@@H]2CCc3c2cc2cc(-c4cccc(-c5ccccc5)c4Cl)oc2c3F)C1` [Compound 005], the IC50 was at most 100 nM.

As to `Cc1c(-c2ccc3c(c2)OCCO3)cccc1-c1nc2cc3c(c(C#N)c2o1)CC[C@H]3NCCC(=O)O` [Compound 049], the IC50 is at most 100 nM.

Regarding `N#Cc1c2c(cc3nc(-c4cccc(-c5ccc6c(c5)OCCO6)c4Cl)oc13)[C@H](N1CC[C@@H](C(=O)NS(=O)(=O)C3CC3)C1)CC2` [Compound 025], the IC50 is at most 100 nM.

As to `N#Cc1c2c(cc3nc(-c4cccc(-c5ccc6c(c5)OCCO6)c4Cl)oc13)[C@H](NCCC(=O)O)CC2` [Compound 050], the IC50 is at most 100 nM.

For `Cc1c(-c2ccc3c(c2)OCCO3)cccc1-c1cc2cc3c(c(C#N)c2o1)CC[C@H]3N1CC[C@@H](C(=O)O)C1` [Compound 013], the IC50 is at most 100 nM.

`N#Cc1c2c(cc3nc(-c4cccc(-c5ccc6c(c5)OCCO6)c4Cl)oc13)[C@@H](N1CC[C@@H](C(=O)O)C1)CC2` [Compound 026]: the IC50 is at most 100 nM.
